Legend:
Assay in all cases: relative viability (nuclei count vs DMSO), 5 days (fraction); higher = more cells survive
NCI-H727 = tested on: NCI-H727
Method in brief: (§1)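 Dosing by pin tool came one day after lung cancer cell lines were seeded in 1536-well plates, using either one drug or a fixed anchor-drug dose plus five library-drug doses (not always all listed) in √10 steps. After 5 days, nuclei were counted on 4× images. Relative viability is treated-well nuclei count divided by vehicle-well nuclei count, and values are medians of duplicate plates.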

COR-L 105 = tested on: COR-L 105
Method in brief: as §1

UMC-11 = tested on: UMC-11
Method in brief: as §1

EKVX = tested on: EKVX
Method in brief: as §1

NCI-H1650 = tested on: NCI-H1650
Method in brief: as §1

H3255 = tested on: H3255
Method in brief: as §1

NCI-H1792 = tested on: NCI-H1792
Method in brief: as §1

HCC-44 = tested on: HCC-44
Method in brief: as §1

NCI-H520 = tested on: NCI-H520
Method in brief: as §1

NCI-H1651 = tested on: NCI-H1651
Method in brief: as §1

NCI-H2087 = tested on: NCI-H2087
Method in brief: as §1

201T = tested on: 201T
Method in brief: as §1

NCI-H1437 = tested on: NCI-H1437
Method in brief: as §1

EPLC-272H = tested on: EPLC-272H
Method in brief: as §1

NCI-H647 = tested on: NCI-H647
Method in brief: as §1

COR-L23 = tested on: COR-L23
Method in brief: as §1

HCC-15 = tested on: HCC-15
Method in brief: as §1

NCI-H1975 = tested on: NCI-H1975
Method in brief: as §1

HCC-827 = tested on: HCC-827
Method in brief: as §1

O=c1[nH]c2ccccc2n1C1CCN(CCCC(c2ccc(F)cc2)c2ccc(F)cc2)CC1 [Pimozide] + CC1(C)CCC(c2ccc(Cl)cc2)=C(CN2CCN(c3ccc(C(=O)NS(=O)(=O)c4ccc(N[C@H](CCN5CCOCC5)CSc5ccccc5)c(S(=O)(=O)C(F)(F)F)c4)cc3)CC2)C1 [Navitoclax] (partner 0.5 µM)
relative viability (NCI-H727; first compound 0.08 µM): 0.415
relative viability (NCI-H727; first compound 0.253 µM): 0.421
relative viability (NCI-H727; first compound 0.8 µM): 0.409
relative viability (NCI-H727; first compound 2.53 µM): 0.409
relative viability (NCI-H727; first compound 8 µM): 0.379
relative viability (COR-L 105; first compound 0.253 µM): 0.601
relative viability (COR-L 105; first compound 0.8 µM): 0.618
relative viability (COR-L 105; first compound 2.53 µM): 0.816
relative viability (COR-L 105; first compound 8 µM): 0.645
relative viability (UMC-11; first compound 0.08 µM): 0.33
relative viability (UMC-11; first compound 0.253 µM): 0.318
relative viability (UMC-11; first compound 0.8 µM): 0.293
relative viability (UMC-11; first compound 2.53 µM): 0.286
relative viability (UMC-11; first compound 8 µM): 0.239
relative viability (EKVX; first compound 0.253 µM): 0.936
relative viability (EKVX; first compound 0.8 µM): 0.881
relative viability (EKVX; first compound 2.53 µM): 0.89
relative viability (EKVX; first compound 8 µM): 0.946
relative viability (NCI-H1650; first compound 0.08 µM): 0.979
relative viability (NCI-H1650; first compound 0.253 µM): 1.17
relative viability (NCI-H1650; first compound 0.8 µM): 1.02
relative viability (NCI-H1650; first compound 2.53 µM): 1.21
relative viability (NCI-H1650; first compound 8 µM): 0.761
relative viability (H3255; first compound 0.253 µM): 0.555
relative viability (H3255; first compound 0.8 µM): 0.549
relative viability (H3255; first compound 2.53 µM): 0.551
relative viability (H3255; first compound 8 µM): 0.506
relative viability (NCI-H1792; first compound 0.08 µM): 0.647
relative viability (NCI-H1792; first compound 0.253 µM): 0.629
relative viability (NCI-H1792; first compound 0.8 µM): 0.619
relative viability (NCI-H1792; first compound 2.53 µM): 0.599
relative viability (NCI-H1792; first compound 8 µM): 0.649
relative viability (HCC-44; first compound 0.08 µM): 0.965
relative viability (HCC-44; first compound 0.253 µM): 1
relative viability (HCC-44; first compound 0.8 µM): 0.95
relative viability (HCC-44; first compound 2.53 µM): 0.884
relative viability (HCC-44; first compound 8 µM): 0.971
relative viability (NCI-H520; first compound 0.08 µM): 1.13
relative viability (NCI-H520; first compound 0.253 µM): 1.05
relative viability (NCI-H520; first compound 0.8 µM): 1.16
relative viability (NCI-H520; first compound 2.53 µM): 1.07
relative viability (NCI-H520; first compound 8 µM): 1.15
relative viability (NCI-H1651; first compound 0.08 µM): 0.953
relative viability (NCI-H1651; first compound 0.253 µM): 1.06
relative viability (NCI-H1651; first compound 0.8 µM): 1.07
relative viability (NCI-H1651; first compound 2.53 µM): 1.11
relative viability (NCI-H1651; first compound 8 µM): 0.992
relative viability (NCI-H2087; first compound 0.08 µM): 0.972
relative viability (NCI-H2087; first compound 0.253 µM): 0.98
relative viability (NCI-H2087; first compound 0.8 µM): 0.878
relative viability (NCI-H2087; first compound 2.53 µM): 0.997
relative viability (NCI-H2087; first compound 8 µM): 0.931
relative viability (201T; first compound 0.08 µM): 1.19
relative viability (201T; first compound 0.253 µM): 1.25
relative viability (201T; first compound 0.8 µM): 1.19
relative viability (201T; first compound 2.53 µM): 1.18
relative viability (201T; first compound 8 µM): 1.15
relative viability (NCI-H1437; first compound 0.08 µM): 1.07
relative viability (NCI-H1437; first compound 0.253 µM): 1.06
relative viability (NCI-H1437; first compound 0.8 µM): 1.06
relative viability (NCI-H1437; first compound 2.53 µM): 0.993
relative viability (NCI-H1437; first compound 8 µM): 0.81
relative viability (EPLC-272H; first compound 0.08 µM): 0.979
relative viability (EPLC-272H; first compound 0.253 µM): 1.16
relative viability (EPLC-272H; first compound 0.8 µM): 1.13
relative viability (EPLC-272H; first compound 2.53 µM): 1.03
relative viability (EPLC-272H; first compound 8 µM): 0.967
relative viability (NCI-H647; first compound 0.08 µM): 1.17
relative viability (NCI-H647; first compound 0.253 µM): 1.14
relative viability (NCI-H647; first compound 0.8 µM): 0.91
relative viability (NCI-H647; first compound 2.53 µM): 0.954
relative viability (NCI-H647; first compound 8 µM): 0.837
relative viability (COR-L23; first compound 0.08 µM): 1.02
relative viability (COR-L23; first compound 0.253 µM): 0.923
relative viability (COR-L23; first compound 0.8 µM): 0.913
relative viability (COR-L23; first compound 2.53 µM): 1.14
relative viability (COR-L23; first compound 8 µM): 0.933
relative viability (HCC-15; first compound 0.08 µM): 0.797
relative viability (HCC-15; first compound 0.253 µM): 0.724
relative viability (HCC-15; first compound 0.8 µM): 0.66
relative viability (HCC-15; first compound 2.53 µM): 0.636
relative viability (HCC-15; first compound 8 µM): 0.621
relative viability (NCI-H1975; first compound 0.08 µM): 1.22
relative viability (NCI-H1975; first compound 0.253 µM): 1.06
relative viability (NCI-H1975; first compound 0.8 µM): 1.08
relative viability (NCI-H1975; first compound 2.53 µM): 1.16
relative viability (NCI-H1975; first compound 8 µM): 0.992
relative viability (HCC-827; first compound 0.253 µM): 1.03
relative viability (HCC-827; first compound 0.8 µM): 0.897
relative viability (HCC-827; first compound 2.53 µM): 0.999
relative viability (HCC-827; first compound 8 µM): 0.981
